Results: patent publication US9889115B2, “Fitness assay and associated methods” (priority 1998, dated 2018)
pIC50: −log10 of the molar value.

How the values were obtained:
Format in all cases: cell-based
[1] = tested on: HIV-1LAI; experiment: PHA-PBMC assay, p24 Gag protein production; details: Human immunodeficiency virus 1; HIV-1LAI, SI; PHA-PBMC, p24 (Table 3)
[2] = tested on: HIV-1BAL; experiment: PHA-PBMC assay, p24 Gag protein production; details: Human immunodeficiency virus 1; HIV-1BAL, NSI; PHA-PBMC, p24 (Table 3)
[3] = tested on: HIV-1ERS104pre; experiment: PHA-PBMC assay, p24 Gag protein production; details: Human immunodeficiency virus 1; HIV-1ERS104pre, SI; PHA-PBMC, p24
Method: (§1) The patient profiles are shown below in Table 2.
(§2) To determine protease inhibitory activity against multidrug resistant HIV, the IC50's were measured against a panel of clinically isolated mutant HIV isolates.
(§3) All drug sensitivities were performed in triplicate. In order to determine whether the HIV isolates were syncitium inducing (SI) or non-syncitium inducing (NSI), an aliquot of viral stock supernatant, containing 100 TCID50, was cultured with 1×10^5 MT-2 cells in a 12-well plate. Cultures were maintained for four weeks and were examined for syncytium formation twice a week.

[4] = tested on: multidrug-resistant HIV-1 clinical isolate, patient 1; experiment: PHA-PBMC assay, p24 Gag protein production; details: Human immunodeficiency virus 1; Patient/Isolate code 1; PHA-PBMC, p24
Method: as §1, §2, §3

[5] = tested on: multidrug-resistant HIV-1 clinical isolate, patient 2; experiment: PHA-PBMC assay, p24 Gag protein production; details: Human immunodeficiency virus 1; Patient/Isolate code 2; PHA-PBMC, p24
Method: as §1, §2, §3

[6] = tested on: multidrug-resistant HIV-1 clinical isolate, patient 3; experiment: PHA-PBMC assay, p24 Gag protein production; details: Human immunodeficiency virus 1; Patient/Isolate code 3; PHA-PBMC, p24
Method: as §1, §2, §3

[7] = tested on: multidrug-resistant HIV-1 clinical isolate, patient 4; experiment: PHA-PBMC assay, p24 Gag protein production; details: Human immunodeficiency virus 1; Patient/Isolate code 4; PHA-PBMC, p24
Method: as §1, §2, §3

[8] = tested on: multidrug-resistant HIV-1 clinical isolate, patient 5; experiment: PHA-PBMC assay, p24 Gag protein production; details: Human immunodeficiency virus 1; Patient/Isolate code 5; PHA-PBMC, p24
Method: as §1, §2, §3

[9] = tested on: multidrug-resistant HIV-1 clinical isolate, patient 6; experiment: PHA-PBMC assay, p24 Gag protein production; details: Human immunodeficiency virus 1; Patient/Isolate code 6; PHA-PBMC, p24
Method: as §1, §2, §3

[10] = tested on: multidrug-resistant HIV-1 clinical isolate, patient 7; experiment: PHA-PBMC assay, p24 Gag protein production; details: Human immunodeficiency virus 1; Patient/Isolate code 7; PHA-PBMC, p24
Method: as §1, §2, §3

[11] = tested on: multidrug-resistant HIV-1 clinical isolate, patient 8; experiment: PHA-PBMC assay, p24 Gag protein production; details: Human immunodeficiency virus 1; Patient/Isolate code 8; PHA-PBMC, p24
Method: as §1, §2, §3

[12] = tested on: HIV; experiment: influence of human protein binding on antiviral activity
Text: These failures have been ascribed, but not definitively proven, to be due to excessive binding to human plasma proteins, particularly serum albumin and AAG.

CC(C)CN(C[C@@H](O)[C@H](Cc1ccccc1)NC(=O)O[C@H]1CCOC1)S(=O)(=O)c1ccc(N)cc1 [AMV, Amprenavir]
pIC50 [1]: 7.72
pIC50 [2]: 7.85
pIC50 [3]: 7.68
pIC50 [4]: 6.54
pIC50 [5]: 6.62
pIC50 [6]: 6.48
pIC50 [7]: 6.40
pIC50 [8]: 6.55
pIC50 [9]: 6.96
pIC50 [10]: 6.38
pIC50 [11]: 6.66
fold of IC50 relative to (−) ([12]; (−), no added protein): 1 ×
fold of IC50 relative to (−) ([12]; Alb: human serum albumin (HAS, 300 μM)): 1 ×
pIC50 ([12]; Human immunodeficiency virus 1, (−), no added protein): 7.54
pIC50 ([12]; Human immunodeficiency virus 1, Alb: human serum albumin (HAS, 300 μM)): 7.68
pIC50 ([12]; Human immunodeficiency virus 1, human alpha acid glycoprotein (AAG, 10 μM)): 6.74
fold of IC50 relative to (−) ([12]; human alpha acid glycoprotein (AAG, 10 μM)): 6 ×
